Data from patent EP1345618B1, “CHLORZOXAZONE FOR THE TREATMENT OF PSORIASIS” (Switch Biotech Aktiengesellschaft, priority 2000, dated 2002).
“Also recorded” adds a separate entry of the source. Where two headings read alike, the source gives them in different places.

Key:
Type in all cases: cell-based
HaCaT-Keratinozyten [1] = test: Patch-clamp recording of the membrane potential (Vm) of HaCaT keratinocytes; conditions: for Depolarisierung auf ein Plateau während der Behandlung mit ATP: other K+ channel blockers, compared with ChTx and Clotrimazol
Method: Um einen Ionenkanal zu identifizieren, der wesentlich bei der Signaltransduktion wundheilungsspezifischer Signale beteiligt ist, wurden HaCaT-Zellen elektrophysiologisch untersucht. Die Anzucht der HaCaT-Keratinozyten erfolgte in DEM mit 10% FRS (Gibco BRL), den Antibiotika (Penicillin/Streptomycin 100 U/ml) zugesetzt worden war. Die Ca^2+-Endkonzentration betrug 1,8 mM. Die Zellen wurden inkubiert bis eine konfluente Zellkultur entstanden war; anschließend wurde das Kulturmedium durch "Standard Bath Solution" (SBS; 130 mM NaCl, 3 mM KCl; 2 mM CaCl2; 2 mM MgCl2; 25 mM HEPES/NaHEPES; 10 mM D-Glukose; pH 7,4) ersetzt und die Schalen an einem inversen Mikroskop (Axiovert, Zeiss) untersucht. Die "Patch"-Pipetten wurden aus Borosilikatröhrchen an einer horizontalen Ausziehvorrichtung (DMZ, Zeitz) nach dem zweistufigen Ausziehverfahren hergestellt. Die Pipetten wurden anschließend mit einer Lösung, die 135 mM Kaliumglukonat, 10 mM KCl, 1,6 mM Na2HPO4, 0,73 mM CaCl2, 1,03 mM MgCl2, 1 mM EGTA, 14 mM HEPES/NaHEPES und […] Nystatin; pH 7,2 enthielt, gefüllt (Ca^2+-Aktivität in der Lösung= 10^-7 M). Der Widerstand dieser "Patch"-Pipetten betrug […] im Bad. Nachdem eine Versiegelung im GΩ-Bereich hergestellt wurde (typischerweise 1,5-2 GΩ) wurde der Verstärker auf Strom-Klemm Modus umgestellt. […] Die elektrophysiologischen Signale wurden mittels eines Axopatch 200 Verstärkers in Verbindung mit einem TL-1 Labmaster Interface und AXOTAPE Software (Axon Instruments) aufgenommen, verstärkt und digitalisiert. Die statistische Auswertung (ein-Weg ANOVA mit Bonferri post-test Vergleich) wurde mit Graphpad prism 2.0 durchgeführt.
Bei Experimenten, bei denen die intrazelluläre Ca^2+-Konzentration durch Blitzphotolyse von "caged IP3" (Calbiochem) erhöht wurde, wurde das "Patch-Clamp Recording" in der Ganzzell-Konfiguration durchgeführt, wobei eine Pipettenlösung enthaltend 120 mM Kaliumglukonat, 20 mM KCl, 1 mM MgCl2, 10 mM HEPES/NaHEPES, 2 mM Na2ATP, 0,3 mM NaGTP (pH 7,2) und 10-100 µM "caged IP3" verwendet wurde. Nach 5-7 min Ganzzell-Aufzeichnung wurde IP3 durch einen UV-Lichtblitz freigesetzt, der durch eine Xenon-Bogen-Lampe (75 W; Anregungsfilter: 330 ± 40 nm), die mit dem Epifluoreszenzport des Mikroskops verbunden war, generiert wurde. Der UV-Lichtstrahl wurde durch das 40-fach Phasenkontrastobjektiv auf die Keratinozyten fokussiert. Die Dauer des Blitzes (1 s) wurde durch einen Uniblitz "Shutter" (Vincent Assoc.) eingestellt.
Bei Experimenten, bei denen die gesamte Lösung, in der die Zellen inkubiert wurden ausgewechselt wurde, wurde ein konischer Plexiglaseinsatz mit mehrfachen Einflußleitungen und einer Ausflußleitung in die Kulturschale eingesetzt, um das Volumen der Ableitkammer auf 1 ml zu reduzieren. Der Zufluß von Flüssigkeit war Schwerkraft-abhängig und wurde durch magnetische Ventile kontrolliert. Der Ausfluß wurde durch das Anlegen eines negativen Drucks mittels einer Vakuumpumpe bewirkt. Die Zugabe von Substanzen erfolgte unter visueller Beobachtung direkt auf die zu untersuchenden Keratinozyten mittels eines ferngesteuerten, magnetgesteuerten Y-Rohrsystem (Durchmesser des Ausflußröhrchens: 100 µm).
Die elektrophysiologischen Ableitungen mittels perforierten "Patches" wurden an HaCaT-Zellen durchgeführt, die zu einem konfluenten Monolayer gewachsen waren.

HaCaT-Keratinozyten [2] = test: Proliferation by daily count of cells per well; conditions: subconfluent cells, n=3
Method: Um den Effekt der Inhibitoren des hIK1 Kanals, Clotrimazol und Charybdotoxin, zu untersuchen, wurde zu subkonfluent gewachsenen Zellen entweder 10 µM Clotrimazol, 200 nM Charybdotoxin (ChTx) oder 1 mM 1-EBIO zugegeben und jeden Tag die Anzahl Zellen pro well bestimmt.
Wie aus Figur 5 (n=3) ersichtlich ist, inhibierte die Zugabe sowohl eines der beiden Inhibitoren als auch die Zugabe des Aktivators von hIK1 die Proliferation, während das Wachstum der Kontrollzellen, denen keine Modulatoren zugesetzt worden waren, unbeeinträchtigt blieb.

HaCaT Zellen [3] = test: Immunoblot of keratinocyte differentiation markers Involucrin, Keratin 1 and Keratin 10; conditions: 1, 100, 1000 µM; 4 days; control 1% DMSO
Text: Dazu wurden in einer 6-"Well"- Platte 5x10^5 HaCaT Zellen pro "Well" in Medium angezogen. Am nächsten Tag wurde das Medium gewechselt auf Medium, das verschiedene Konzentrationen an 1-EBIO bzw. […] Als Lösungsmittelkontrolle wurde 1% DMSO (Spur "C") in Medium benutzt. Die Zellen wurden 4 Tage lang inkubiert, wobei das Medium täglich ersetzt wurde. Nach 4 Tagen wurden die Proteinkonzentration in den Zelllysaten bestimmt (BCA Assay, Pierce). Gleiche Proteinmengen aus den verschiedenen Lysaten wurden anschliessend mittels Immunoblot gegen die Keratinozytendifferenzierungsmarker Involucrin (1:500, Sigma) sowie Keratin 1 und 10 (1:250, Progen) verglichen (Figur 6).

HaCaT-Zellen = test: Anti-K10 immunostaining of HaCaT cells (differentiation); conditions: 1 mM 1-EBIO, 3 days, compared with control cells without 1-EBIO
Method: Dazu wurden proliferierende subkonfluente Zellen, Zellen, die gerade Konfluenz erreicht hatten, und ruhende Zellen (4 Tage nach Konfluenz) untersucht. Die Aktivität dieser Keratinozyten wurde anhand der differenzierungsspezifischen Keratin-10-Expression bestimmt. Dazu wurden die Zellen in eiskaltem PBS gewaschen und mit Aceton/Methanol (1:1) 20 min bei -20°C fixiert. Endogene Peroxidasen wurden mit 1 % H2O2 bei Raumtemperatur blockiert. Nachdem die unspezifischen Bindungsstellen mit 3% BSA in PBS abgesättigt worden waren, wurden die Zellen über Nacht in einer 1:500 Verdünnung des Maus-anti-K10 Antikörpers (DAKO) in 3% BSA in PBS bei 4°C inkubiert und anschließend drei Mal mit PBS und einmal mit 3% BSA in PBS gewaschen. Nach 2 h Inkubation mit einem Peroxidase-gekoppelten anti-Maus Antikörper bei Raumtemperatur wurden die Zellen dreimal mit PBS und einmal mit ddH2O gewaschen. Anschließend wurden die Zellen mit dem Peroxidase Substrat-Kit und 3-Amino-9-ethylcarbazol als chromogenes Substrat (Vector Laboratories) gefärbt. Während die proliferierenden Zellen und die Zellen, die gerade Konfluenz erreicht hatten, keine Färbung aufwiesen, zeigte es sich, daß ein Großteil der postkonfluenten Zellen gefärbt war (Figur 3). […]

HaCaT Zellen [4] = test: BrDU incorporation cell proliferation ELISA (A[450 nm])
Text: Dabei wurde zunächst der Einfluss verschiedener Konzentrationen von 1-EBIO auf die Wachstumsrate von HaCaT Zellen in An- und Abwesenheit von Serum gemessen. Zu diesem Zweck wurden 1x10^4 HaCaT Zellen pro "Well" in einer 96-"Well" Platte 5 Tage lang in Keratinozytenwachstumsmedium (KGM) kultiviert, um den Zellzyklus zu synchronisieren, gefolgt von einer zweitägigen Inkubation verschiedener Konzentrationen an 1-EBIO in KGM (siehe Figuren 7 und 8) in Abwesenheit (Figur 7) und in Anwesenheit (Figur 8) von Serum. […] Als Lösungmittelkontrolle diente 1% DMSO in KGM. Die Zellproliferation wurde mit Hilfe des Einbaus von […] (BrDU) während der Zellteilung gemäß den Angaben des Herstellers gemessen ("The Cell Proliferation ELISA, BrDU, Roche). Der Einbau von BrDU wurde dabei durch die Bestimmung der Absorption bei 450 nm quantifiziert. In Figur 7 und 8 ist jeweils die Absorption (A[450nm]) als Maß für die Proliferationsrate auf der Y-Achse aufgetragen. Eine höhere Absorption spiegelt eine stärkere Proliferation wieder.

Compound: O=P(O)(O)O[C@@H]1[C@H](O)[C@H](O)[C@@H](OP(=O)(O)O)[C@H](OP(=O)(O)O)[C@H]1O [IP3]
- Spannungsänderung nach Freisetzung von IP3 (HaCaT-Keratinozyten [1]; whole-cell, caged-IP3 10-100 µM, UV flash photolysis, n=7): schnellen, transienten Depolarisierung, gefolgt von einer Hyperpolarisierung

Compound: CCCCCCCCCCCCCC(=O)O[C@@H]1[C@@H](C)[C@@]2(O)[C@@H](C=C(CO)C[C@]3(O)C(=O)C(C)=C[C@@H]23)[C@@H]2C(C)(C)[C@]12OC(C)=O [PMA]
- Membranpotential (langsame Depolarisierung auf) (HaCaT-Keratinozyten [1]): -32 ± 2 mV
- Einfluß auf den Effekt von ATP (HaCaT-Keratinozyten [1]; PMA 60 ng/µl, n=4): beeinflußte jedoch nicht den Effekt von ATP

Compound: CC[N+](CC)(CC)CC [TEA]
- Depolarisierung auf ein Plateau während der Behandlung mit ATP (HaCaT-Keratinozyten [1]): Keiner der anderen getesteten K^+-Kanalblocker (TEA, Ba^2+, und Verapamil) führten zu einer vergleichbaren Depolarisierung auf ein Plateau

Compound: Charybdotoxin
- Proliferation (Anzahl Zellen pro well) (HaCaT-Keratinozyten [2]; Charybdotoxin 200 nM): die Proliferation verlangsamte; also recorded: nur verlangsamtes Wachstum
- Einfluß auf die bestehende ATP-vermittelte Hyperpolarisierung (HaCaT-Keratinozyten [1]; ChTx 100 nM added after ATP, ATP still present, n=2): vollständige Umkehrung der Hyperpolarisierung
- Einfluß auf die Repolarisierung unter ATP (HaCaT-Keratinozyten [1]; ChTx 100 nM before ATP, n=4): verhinderte ChTx die Repolarisierung vollständig
- Einfluß auf die ATP-vermittelte Hyperpolarisierung (HaCaT-Keratinozyten [1]; ChTx 10-100 nM before ATP, n=15): verhinderte eine Hyperpolarisierung
- Inhibition der ATP-vermittelten Hyperpolarisierung (HaCaT-Keratinozyten [1]; various concentrations, added before ATP): dosisabhängige Inhibition der ATP-vermittelten Hyperpolarisierung

Compound: [Ba+2] [Ba^2+]
- Depolarisierung auf ein Plateau während der Behandlung mit ATP (HaCaT-Keratinozyten [1]): Keiner der anderen getesteten K^+-Kanalblocker (TEA, Ba^2+, und Verapamil) führten zu einer vergleichbaren Depolarisierung auf ein Plateau

Compound: Nc1ncnc2c1ncn2[C@@H]1O[C@H](COP(=O)(O)OP(=O)(O)OP(=O)(O)O)[C@@H](O)[C@H]1O [ATP]
- Reversibilität der Hyperpolarisierung (HaCaT-Keratinozyten [1]; 1 µM ATP, n=9): durch Auswaschen der Lösung rasch reversiblen Prozeß
- Änderung des Membranpotentials (HaCaT-Keratinozyten [1]; ATP 1-1000 µM perfusion, perforated patch, current clamp, confluent monolayer): biphasische Änderung des Membranpotentials, die aus einer kurzen, transienten Depolarisierung gefolgt von einer deutlichen und langanhaltenden Hyperpolarisierung bestand
- Dauer der Hyperpolarisierung nach ATP-Zugabe (HaCaT-Keratinozyten [1]; ATP ≥ 10 µM, added for 5 min): ≥ 5 min

Compound: Bradykinin (RPPGFSPFR; Bradykinin; UniProt P01042 381-389, looked up)
- elektrophysiologische Antwort im Vergleich zu ATP (HaCaT-Keratinozyten [1]; Bradykinin 10 µM, n=3): quantitativ und kinetisch praktisch identische Antwort

Compound: NCCc1c[nH]cn1 [Histamin]
- elektrophysiologische Antwort im Vergleich zu ATP (HaCaT-Keratinozyten [1]; Histamin 100 µM, n=4): quantitativ und kinetisch praktisch identische Antwort

Compound: CCn1c(=O)[nH]c2ccccc21 [1-EBIO, 1-Ethyl-2-benzimidazolinon]
- Proliferation (Anzahl Zellen pro well) (HaCaT-Keratinozyten [2]; 1-EBIO 1 mM): inhibierten die Proliferation vollständig; also recorded: vollständigen Inhibition
- Differenzierung (Involucrin, K1, K10) (HaCaT Zellen [3]): dosisabhängig inhibieren
- Anteil an K10-gefärbten Zellen (Differenzierung) (HaCaT-Zellen): signifikant reduzierten Anteil an gefärbten Zellen
- Dosisabhängigkeit der Inhibition der seruminduzierten Proliferation (HaCaT Zellen [4]; 1-EBIO, various concentrations, with serum): dosisabhängig ist und den stärksten Effekt bei einer Konzentration von 1 mM zeigt
- Zellproliferation ohne Serum (HaCaT Zellen [4]; KGM without serum, 2 days, 1-EBIO various concentrations, Zoxazolamin 1 mM): alleine nicht in der Lage sind, die Zellproliferation zu stimulieren
- Apoptose / Morphologie der Zellen (HaCaT Zellen [4]; cells treated with the activators): keine Anzeichen von Apoptose
- seruminduzierte Proliferation (HaCaT Zellen [4]; with 10% FCS, 2 days, 1-EBIO various concentrations, Zoxazolamin 1 mM): in der Lage die seruminduzierte Proliferation zu inhibieren
- transiente Depolarisierung nach ATP (HaCaT-Keratinozyten [1]; ATP 10 µM in the presence of 1-EBIO 1 mM): viel stärker war als unter Kontrollbedingungen

Compound: CCn1c(=O)[nH]c2cc(Cl)c(Cl)cc21 [DCEBIO, 5,6-dichloro-1-ethyl-1,3-dihydro-2H-benzimidazol-2-on]
- Stärke der Depolarisation relativ zu 1-EBIO (HaCaT-Keratinozyten [1]; HaCaT Zellen, relative to 1-EBIO): 300-1000 fach

Compound: Calphostin C
- Einfluß auf die ATP-vermittelte Spannungsänderung (HaCaT-Keratinozyten [1]; Calphostin C 50 nM): beeinflußte jedoch ebenfalls nicht die ATP-vermittelte Spannungsänderung
- Membranpotential (schwache Hyperpolarisierung auf) (HaCaT-Keratinozyten [1]; Calphostin C 50 nM): -58 ± 3 mV

Compound: Clc1ccccc1C(c1ccccc1)(c1ccccc1)n1ccnc1 [Clotrimazol]
- Proliferation (Anzahl Zellen pro well) (HaCaT-Keratinozyten [2]; Clotrimazol 10 µM): inhibierten die Proliferation vollständig; also recorded: vollständigen Inhibition
- Einfluß auf die Repolarisierung unter ATP (HaCaT-Keratinozyten [1]): Derselbe Effekt
